# Literature values as cited in patent US20260345654A1, “2,8-DIHYDROXYQUINOLINE GLUCURONIDE DERIVATIVES WITH ENHANCED PROPERTIES FOR USE AS ANTICANCER, ANTIVIRAL, ANTIMICROBIAL, AND OTHER THERAPEUTIC APPLICATIONS” (priority 2023, published 2026).
# Assays:
# cancer cells = settings: Zhai 2010; Oliveri 2012; cited from earlier work
# [1] = test system: A2780, A549 and MDA-MB-231 cells; settings: addition of Cu^+2 to the media; cited from earlier work
# [2] = test system: viral attachment to ACE receptor; settings: COVID 19; copper chelation not required; cited from earlier work
# [3] = Japanese population, 1970's; cited from earlier work
# tumor cells = settings: addition of docosahexaenoic acid (DHA); Ding 2006; cited from earlier work
smiles,measurement,setting,value
"Oc1c(I)cc(Cl)c2cccnc12 [CQ, 5-chloro-7-iodo-8-hydroxyquinoline]",effect of copper on anti-cancer activity,cancer cells,enhancer or prerequisite of the anti-cancer activity
same,cytotoxicity change with addition of Cu^+2,[1],significantly increased the cytotoxicity
same,antiviral activity mechanism,[2],blocking viral attachment to ACE receptor
same,serious side effect,[3],CQ-associated subacute myelo-optic neuropathy
same,anticancer activity with omega fatty acids,tumor cells,increase synergistically
